# Key:
# Cyclooxygenase (CO) = molecular target: T1, Cyclooxygenase (CO) (Homo sapiens, UniProt P23219); assay: In vitro inhibition of cyclooxygenase (CO): thromboxane release from arachidonic acid in leukocyte homogenate, radioimmunoassay; format: biochemical; conditions: volunteers' blood, 5 μM arachidonic acid, 37°, 5 minutes, thromboxane B4 RIA
# T1 construct: The leukocytes were homogenised and 5 μM arachidonic acid added; endogenous in cells; host or cells: leukocytes from blood of normal aspirin-free volunteers, separated from red cells and platelets by centrifugation, homogenised
# Protocol: (§1) In vitro inhibition of 5-lipoxygenase (LO) and Cyclooxygenase (CO)
# (§2) Blood from normal aspirin-free volunteers was centrifuged to separate leukocytes from red cells and platelets. The leukocytes were homogenised and 5 μM arachidonic acid added, followed by incubation at 37° for 5 minutes. The reaction was stopped by boiling. Radioimmunoassay was conducted for leukotriene B4 (an LO product) and […] (a CO product). Results were calculated as IC50 μM activity against each enzyme and as listed below.
# 5-lipoxygenase (LO) = molecular target: T2, 5-lipoxygenase (LO) (Homo sapiens, UniProt P09917); assay: In vitro inhibition of 5-lipoxygenase (LO): leukotriene B4 from arachidonic acid in leukocyte homogenate, radioimmunoassay; format: biochemical; conditions: volunteers' blood, 5 μM arachidonic acid, 37°, 5 minutes, leukotriene B4 RIA
# T2 construct: The leukocytes were homogenised and 5 μM arachidonic acid added; endogenous in cells; host or cells: leukocytes from blood of normal aspirin-free volunteers, separated from red cells and platelets by centrifugation, homogenised
# T2 sequence (P09917 1-674): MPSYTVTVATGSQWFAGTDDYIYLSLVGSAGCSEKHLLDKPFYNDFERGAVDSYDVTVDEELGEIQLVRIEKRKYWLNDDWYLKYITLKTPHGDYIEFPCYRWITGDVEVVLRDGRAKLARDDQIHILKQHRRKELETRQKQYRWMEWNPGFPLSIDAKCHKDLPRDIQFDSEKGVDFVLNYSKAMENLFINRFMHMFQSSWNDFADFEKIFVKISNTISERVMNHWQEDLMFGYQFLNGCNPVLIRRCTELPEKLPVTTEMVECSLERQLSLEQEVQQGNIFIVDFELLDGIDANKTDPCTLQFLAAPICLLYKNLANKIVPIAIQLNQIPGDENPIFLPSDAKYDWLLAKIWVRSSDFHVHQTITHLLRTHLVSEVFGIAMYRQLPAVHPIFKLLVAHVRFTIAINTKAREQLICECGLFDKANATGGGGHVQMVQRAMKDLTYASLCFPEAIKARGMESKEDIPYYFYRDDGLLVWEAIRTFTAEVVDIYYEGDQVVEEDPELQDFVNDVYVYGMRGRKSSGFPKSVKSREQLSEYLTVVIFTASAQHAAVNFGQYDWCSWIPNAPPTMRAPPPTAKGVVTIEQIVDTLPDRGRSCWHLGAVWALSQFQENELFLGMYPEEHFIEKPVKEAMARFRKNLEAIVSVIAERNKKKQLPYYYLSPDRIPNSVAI
# Protocol: as §1, §2
# T1 sequence (P23219 24-599): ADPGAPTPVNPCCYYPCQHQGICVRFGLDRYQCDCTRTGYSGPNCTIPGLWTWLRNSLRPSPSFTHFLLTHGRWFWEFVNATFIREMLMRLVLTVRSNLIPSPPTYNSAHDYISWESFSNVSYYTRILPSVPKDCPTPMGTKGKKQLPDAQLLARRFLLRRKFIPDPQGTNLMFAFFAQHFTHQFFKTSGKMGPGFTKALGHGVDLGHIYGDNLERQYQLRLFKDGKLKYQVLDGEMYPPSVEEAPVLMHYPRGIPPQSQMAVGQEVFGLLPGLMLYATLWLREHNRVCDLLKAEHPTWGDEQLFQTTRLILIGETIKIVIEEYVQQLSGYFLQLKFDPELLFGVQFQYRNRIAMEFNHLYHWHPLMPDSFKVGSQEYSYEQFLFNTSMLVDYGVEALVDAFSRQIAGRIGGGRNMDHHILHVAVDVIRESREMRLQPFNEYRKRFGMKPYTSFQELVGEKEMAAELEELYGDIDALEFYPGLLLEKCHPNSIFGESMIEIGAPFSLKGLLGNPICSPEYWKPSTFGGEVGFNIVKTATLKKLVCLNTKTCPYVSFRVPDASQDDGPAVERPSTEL
substance,measurement,setting,value
3-Phenoxy-N-methylcinnamohydroxamic Acid [Example 1],IC50,Cyclooxygenase (CO),3 µM
same,IC50,5-lipoxygenase (LO),< 0.1 µM
